Measured values published in patent EP2404925A1, “New all trans platinum (IV) complexes, their preparation and their use as antitumor agents” (Universidad Autónoma de Madrid, priority 2010, dated 2012).

Assays:
CCRF-CEM = test: In vitro antiproliferative assay (14C-thymidine uptake), CEM cells; assay type: cell-based, human; details: 72 h incubation, then 14C-thymidine uptake recorded 24 h later
Protocol: (§1) • CCRF-CEM is a human T-cell leukemia cell line (DSMZ ref ACC 240), established in 1964 from peripheral blood of young child bearing a terminal-stage ALL (Foley et al., Cancer 18: 522-529 (1965)). • NCI-H460 is a human epidermoïd lung tumour cell line, obtained from the NCI (NCI-Frederick. Tumor Bank). • MX1 is a human mammary carcinoma tumour, harbouring BRCA1 mutation, obtained from NCI (NCI-Frederick. Tumor Bank).
(§2) Tumour cells were grown in appropriate culture medium, either RPMI-1640 or DMEM, complemented with 10% calf-fetal serum and antibiotics.
(§3) Cell proliferation was evaluated by ^14C-thymidine uptake in DNA. Exponentially growing cells - from 5.10^3 to 10^4 per well in 180 µL culture medium - were introduced in a 96-wells microtitration Cytostar-T apparatus (GE Healthcare Bio-Sciences, Uppsala, Sweden). After 4 hours pre-incubation under CO2 atmosphere at 37°C, compounds were added in 10 µL volume. After incubation for an additional 72 hours period, 0.1 µCi ^14C-thymidine was added in each well, C^14 -thymidine uptake was recorded 24 hours later on a scintillation counter (Perkin-Elmer Life Sciences, Boston, MA, USA). IC50, defined as the dose which inhibits 50% of cell proliferation, were thus determined.

NCI-H460 = test: In vitro antiproliferative assay (14C-thymidine uptake), H460 cells; assay type: cell-based, human; details: 72 h incubation, then 14C-thymidine uptake recorded 24 h later
Protocol: as §1, §2, §3

MX1 tumor = test: In vivo antitumor evaluation in MX1 tumor model; parameters: species or system SCID mice; details: for SRI activity rating: day 10 to day 15 post tumor implantation
Source text: as §1
(§4) 7 to 8 weeks-old female SCID mice, obtained from Charles River (L'Arbresle, Lyon , France) were acclimated for at least 1 week previous experiment.
Animals, placed under normal light cycle, had then ad libitum access to food and water. MX1 cells, 10^7 cells per mouse initially grown in RPMI medium supplemented with 10% foetal-calf serum and antibiotics, were subcutaneously implanted in mice. When […] tumour volume was reached, fragments (2-3 mm diameter) were cut, placed in phosphate buffer (PBS), bilaterally implanted and further passaged in mice until tumour growth rate is stable, before starting the experiment. Tumors were measured with a caliper twice weekly until the tumor reached 2000 mm^3 or until the animal died (which ever come first). Tumor volumes were estimated from 2 dimensional measurements: Volume (in mm^3) = (a x b^2)/2, where a and b are the tumor length and width (mm) respectively. The variation from the baseline of the tumoral volume is calculated in the treated and control group. These values are used to calculate the median in the treated group (ΔT) and in the control group (ΔC). ΔT/ΔC, expressed as a percentage, is the ratio of median at a chosen day (the last day before it becomes necessary to sacrifice control mice owing to tumor size). ΔT/ΔC values can be translated into an activity rating, according to the Southern Research Institute (SRI) criteria:
(§5) When ΔT/ΔC values are negative, the percentage of regression is evaluated. A Partial regression (PR) is defined as a decrease in tumor volume greater than or equal to 50% of the tumor volume at start of treatment. A Complete regression (CR) is defined as a decrease in tumor volume below the limit of palpation (T=10mm^3). At the end of the study, the number of tumor free survivor (TFS) which correspond to mice without any detectable tumor is determined. Both drug-related deaths and maximum percent relative mean net body weight loss are also determined. A body weight loss (mean of group) of greater than 15% for more than 3 consecutive days or 20% weight loss for one day or 10% drug deaths are considered to indicate an excessively toxic dosage.

[1] = Toxicity (body weight loss, drug deaths) in the MX1 tumor model study; assay type: in vivo, SCID mice
Protocol: as §4, §5

[2] = i.v. daily during 5 days at 5 mg/kg
[3] = i.v. daily during 5 days at 5 mg/kg (25 mg/kg total dose)
[4] = i.v. daily during 5 days at 10 mg/kg
[5] = i.v. daily during 5 days at 10 mg/kg (50 mg/kg total dose)

Work on `N.N.[Cl][Pt][Cl]` [cisplatin, reference compound] yielded an IC50 (CCRF-CEM) of 0.4 to 0.8 µM and an IC50 (NCI-H460) of 2.6 to 4 µM.

With `O=C1[O][Pt]2([NH][C@@H]3CCCC[C@H]3[NH]2)[O]C1=O` [oxaliplatin, reference compound] the IC50 (CCRF-CEM) was 4 µM and the IC50 (NCI-H460) was 2.4 µM.

With `CC(=O)[O][Pt]([NH2])([Cl])([Cl])([NH]C1CCCCC1)[O]C(C)=O` [satraplatin, reference compound] the IC50 (CCRF-CEM) was 0.4 µM and the IC50 (NCI-H460) was 0.19 µM.

For “Trans-trans-trans-{PtCl2(OH)2(dimethylamine)[(exo)-2- norbornylamine]} [EXAMPLE 3]”, the IC50 (CCRF-CEM) was 0.031 µM and the IC50 (NCI-H460) was 0.315 µM.

With “Trans-trans-trans-{PtCl2(OH)2(isopropylamine)[(rac)-(endo)-norbornylamine]} [EXAMPLE 2]” the IC50 (CCRF-CEM) was 0.025 µM and the IC50 (NCI-H460) was 0.255 µM.

In the case of “Trans-trans-trans-{PtCl2(OH)2(isopropylamine)[(rac)-(exo)-norbornylamine]} [EXAMPLE 1]”, the IC50 (CCRF-CEM) is reported as 0.053 µM, the IC50 (NCI-H460) is reported as 0.532 µM and the “CR (complete regression)” value (MX1 tumor; [2]) is reported as 100%. The ΔT/ΔC (MX1 tumor; [3]) was less than 0%, the SRI activity rating (MX1 tumor; [3]) was “highly active” and the “CR (complete regression)” value (MX1 tumor; [4]) was 100%. The “TFS (tumor free survivor) at the end of the study” value (MX1 tumor; [4]) was 2, the ΔT/ΔC (MX1 tumor; [5]) was less than 0% and the SRI activity rating (MX1 tumor; [5]) was “highly active”. The toxicity for mice ([1]; 20 mg/kg) was “toxic”, the deaths ([1]; 20 mg/kg, deaths on days 17, 19, 20, 21 and 24 (2 mice)) was 6/6 and the body weight loss [1, 2] was 4%. The drug death [1, 2] was “no drug death”, the body weight loss [1, 4] was 12% and the drug death [1, 4] was “no drug death”. The maximal tolerated dose ([1]; i.v., daily for 5 days schedule) was 10 mg/kg.
